Laboratory results published in patent US20130337461A1, “METHOD FOR DIAGNOSIS, MONITORING THE EFFICACY OF A THERAPY AND FOR DEVELOPMENT OF TREATMENT FOR MULTIPLE SCLEROSIS” (priority 2010, published 2013).

Key:
M03-13 cells [1] = assay: Differentiation of M03-13 cells with low doses of hydrogen peroxide: differentiation markers; assay type: cell-based, human
M03-13 cells [2] = assay: Differentiation of M03-13 cells with PMA: expression or localization of differentiation markers
[3] = 100 nM PMA 30 min, cells pre-incubated 16 h in 0.2% FBS, Western blotting, vs not differentiated
[4] = 100 nM PMA 24 h, absence of serum, Western blotting
[5] = 200 μM H2O2 for 4 days in complete medium, Western blotting

Compound: CC(=O)N[C@@H](CS)C(=O)O [NAC, N-Acetyl-Cysteine]
- reversal of hydrogen peroxide effects on α-SMA, P-CREB levels (M03-13 cells [1]; 200 μM H2O2 in presence of NAC 10 mM or AEBSF 40 μM, Western blotting): reverted hydrogen peroxide effects

Compound: CCCCCCCCCCCCCC(=O)O[C@@H]1[C@@H](C)[C@@]2(O)[C@@H](C=C(CO)C[C@]3(O)C(=O)C(C)=C[C@@H]23)[C@@H]2C(C)(C)[C@]12OC(C)=O [PMA, 12-O-Tetradecanoylphorbol-13-acetate]
- P-CREB levels (M03-13 cells [2]; [3]): significantly increases
- P-ERK1/2 levels (M03-13 cells [2]; [3]): significantly increases
- Olig-2 levels (M03-13 cells [2]; [4]): increased
- P-CREB levels (M03-13 cells [2]; [4]): increased
- P-ERK1/2 levels (M03-13 cells [2]; [4]): increased
- α-SMA levels (M03-13 cells [2]; [4]): decrease
- translocation of olig-2 from nucleus to cytosol (M03-13 cells [2]; 100 nM PMA 24 h, medium without serum, confocal microscopy): a cytoplasmic staining of the cells became evident
- α-SMA signal (M03-13 cells [2]; 100 nM PMA serum-free medium, 1 and 4 days, confocal microscopy, vs not differentiated cells): decreased
- Olig-2 fluorescent signal (M03-13 cells [2]; 100 nM PMA serum-free medium, 1 day and 4 days, confocal microscopy, vs not differentiated cells): progressively increased
- MBP signal (M03-13 cells [2]; 100 nM PMA serum-free medium, 1 day or 4 days, confocal microscopy, vs not differentiated cells): increased
- mAchR M1 level (M03-13 cells [2]; 100 nM PMA, absence of serum, 4 days, Western blotting): increased
- cytosolic MBP levels (M03-13 cells [2]; 100 nM PMA, absence of serum, 4 days, cell fractionation and Western blotting): decreases
- MBP protein levels (M03-13 cells [2]; 100 nM PMA, medium without serum, 24 h and 4 days, flow cytometric analysis): time-dependent increase

Compound: hydrogen peroxide [H2O2]
- total MBP protein levels (M03-13 cells [1]; 200 μM H2O2 4d, flow cytometric analysis): increases
- translocation of olig-2 from nucleus to cytosol (M03-13 cells [1]; 200 μM H2O2, 30 min and 24 h, confocal microscopy): a cytoplasmic staining of the cells became evident already after 30 min
- α-SMA signal (M03-13 cells [1]; 200 μM H2O2 complete medium, 1 and 4 days, confocal microscopy, vs not differentiated cells): decreased
- Olig-2 fluorescent signal (M03-13 cells [1]; 200 μM H2O2 complete medium, 1 day and 4 days, confocal microscopy, vs not differentiated cells): progressively increased
- P-CREB levels (M03-13 cells [1]; [5]): induces
- P-ERK1/2 levels (M03-13 cells [1]; [5]): not affected
- α-SMA levels (M03-13 cells [1]; [5]): decreases
- cytosolic MBP levels (M03-13 cells [1]; 200 μM hydrogen peroxide 4 days, complete medium, cell fractionation and Western blotting): decreases
- differentiation of oligodendrocyte precursors to differentiated cells (M03-13 cells [1]; low doses of hydrogen peroxide, overall conclusion): induces the differentiation
